Measurements as given in ChEMBL document CHEMBL5096223, “Design, synthesis, and biological evaluation of 2-arylamino-4-(piperidin-4-yloxy)pyrimidines as potent EGFRT790M/L858R inhibitors to treat non-small cell lung cancer” (Bioorg Med Chem, 2022).
The source made the active and inactive calls. No cut-off for these calls is given here.

How the values were obtained:
NCI-H1975 [1] = assay: Antiproliferative activity against human NCI-H1975 cells harboring EGFR T790M/L858R mutant assessed as reduction in cell growth incubated for 72 hrs by MTT assay; type: functional, cell-based; settings: NCI-H1975, 72 h
[2] = Cytotoxicity against human HBE cells assessed as reduction in cell viability incubated for 72 hrs by MTT assay; type: toxicity, cell-based, Epithelial cell
[3] = Cytotoxicity against human A-431 cells harboring wild type EGFR assessed as reduction in cell viability incubated for 72 hrs by MTT assay; type: toxicity, cell-based
Homo sapiens = species: Homo sapiens; assay: Selectivity index, ratio of IC50 for N-terminal GST-tagged human recombinant wild type EGFR (695 to end residues) expressed in baculovirus-infected Sf9 cells to IC50 for N-terminal GST-tagged human recombinant EGFR T790M/L858R mutant (695 to end residues) expressed in baculovirus-infected Sf9 cells; type: functional
ASPC1 = assay: Antiproliferative activity against human ASPC1 cells harboring KRAS G12D mutant assessed as reduction in cell growth incubated for 72 hrs by MTT assay; type: functional, cell-based; settings: ASPC1, 72 h
NCI-H358 = assay: Antiproliferative activity against human NCI-H358 cells harboring KRAS G12C mutant assessed as reduction in cell growth incubated for 72 hrs by MTT assay; type: functional, cell-based; settings: NCI-H358, 72 h
[4] = Cytotoxicity against human L02 cells assessed as reduction in cell viability incubated for 72 hrs by MTT assay; type: toxicity, cell-based
SW-620 = assay: Antiproliferative activity against human SW620 cells harboring KRAS G12V mutant assessed as reduction in cell growth incubated for 72 hrs by MTT assay; type: functional, cell-based; settings: SW-620, 72 h
[5] = molecular target: Epidermal growth factor receptor (Homo sapiens, UniProt P00533); assay: Inhibition of N-terminal GST-tagged human recombinant wild type EGFR (695 to end residues) expressed in baculovirus-infected Sf9 cells using poly (4:1 Glu,Tyr) peptide as substrate incubated for 60 mins in presence of ATP by ADP-Glo kinase assay
Chain of Epidermal growth factor receptor (Homo sapiens, UniProt P00533) (P00533 whole entry): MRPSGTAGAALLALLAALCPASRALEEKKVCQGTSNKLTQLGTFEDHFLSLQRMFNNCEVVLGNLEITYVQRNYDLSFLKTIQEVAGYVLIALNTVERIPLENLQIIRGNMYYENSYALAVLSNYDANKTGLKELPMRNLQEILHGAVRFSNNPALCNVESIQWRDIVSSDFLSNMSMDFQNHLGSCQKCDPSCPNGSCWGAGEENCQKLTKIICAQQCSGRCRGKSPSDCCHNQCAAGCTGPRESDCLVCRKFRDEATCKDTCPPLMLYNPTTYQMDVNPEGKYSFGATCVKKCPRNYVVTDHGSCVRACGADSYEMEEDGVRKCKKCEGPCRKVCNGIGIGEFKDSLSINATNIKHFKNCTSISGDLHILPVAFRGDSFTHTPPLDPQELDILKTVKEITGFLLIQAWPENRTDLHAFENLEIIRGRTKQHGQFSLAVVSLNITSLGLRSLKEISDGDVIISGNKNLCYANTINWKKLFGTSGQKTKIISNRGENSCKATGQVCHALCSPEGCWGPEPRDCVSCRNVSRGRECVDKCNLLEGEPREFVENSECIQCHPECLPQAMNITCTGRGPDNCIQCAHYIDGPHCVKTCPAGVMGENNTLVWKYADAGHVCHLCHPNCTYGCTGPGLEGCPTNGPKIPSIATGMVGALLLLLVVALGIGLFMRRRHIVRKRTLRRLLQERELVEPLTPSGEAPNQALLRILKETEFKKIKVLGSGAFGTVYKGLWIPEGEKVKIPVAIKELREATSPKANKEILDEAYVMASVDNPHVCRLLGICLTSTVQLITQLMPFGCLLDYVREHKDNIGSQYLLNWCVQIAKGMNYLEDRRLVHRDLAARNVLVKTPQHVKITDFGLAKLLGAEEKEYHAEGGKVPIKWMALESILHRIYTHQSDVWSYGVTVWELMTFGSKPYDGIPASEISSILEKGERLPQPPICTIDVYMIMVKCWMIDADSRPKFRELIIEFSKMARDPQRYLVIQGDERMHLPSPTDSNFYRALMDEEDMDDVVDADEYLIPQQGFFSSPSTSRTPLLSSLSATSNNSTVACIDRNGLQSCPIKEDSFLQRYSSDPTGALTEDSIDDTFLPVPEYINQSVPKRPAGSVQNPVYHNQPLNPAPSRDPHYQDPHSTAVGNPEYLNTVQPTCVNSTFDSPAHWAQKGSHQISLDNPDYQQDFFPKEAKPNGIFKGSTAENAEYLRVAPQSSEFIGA

[6] = molecular target: Epidermal growth factor receptor (Homo sapiens, UniProt P00533, L858R/T790M); assay: Inhibition of N-terminal GST-tagged human recombinant EGFR T790M/L858R mutant (695 to end residues) expressed in baculovirus-infected Sf9 cells using poly (4:1 Glu,Tyr) peptide as substrate incubated for 60 mins in presence of ATP by ADP-Glo kinase assay
Chain of Epidermal growth factor receptor (Homo sapiens, UniProt P00533, L858R/T790M) (P00533 25-1210 T790M/L858R limits assumed): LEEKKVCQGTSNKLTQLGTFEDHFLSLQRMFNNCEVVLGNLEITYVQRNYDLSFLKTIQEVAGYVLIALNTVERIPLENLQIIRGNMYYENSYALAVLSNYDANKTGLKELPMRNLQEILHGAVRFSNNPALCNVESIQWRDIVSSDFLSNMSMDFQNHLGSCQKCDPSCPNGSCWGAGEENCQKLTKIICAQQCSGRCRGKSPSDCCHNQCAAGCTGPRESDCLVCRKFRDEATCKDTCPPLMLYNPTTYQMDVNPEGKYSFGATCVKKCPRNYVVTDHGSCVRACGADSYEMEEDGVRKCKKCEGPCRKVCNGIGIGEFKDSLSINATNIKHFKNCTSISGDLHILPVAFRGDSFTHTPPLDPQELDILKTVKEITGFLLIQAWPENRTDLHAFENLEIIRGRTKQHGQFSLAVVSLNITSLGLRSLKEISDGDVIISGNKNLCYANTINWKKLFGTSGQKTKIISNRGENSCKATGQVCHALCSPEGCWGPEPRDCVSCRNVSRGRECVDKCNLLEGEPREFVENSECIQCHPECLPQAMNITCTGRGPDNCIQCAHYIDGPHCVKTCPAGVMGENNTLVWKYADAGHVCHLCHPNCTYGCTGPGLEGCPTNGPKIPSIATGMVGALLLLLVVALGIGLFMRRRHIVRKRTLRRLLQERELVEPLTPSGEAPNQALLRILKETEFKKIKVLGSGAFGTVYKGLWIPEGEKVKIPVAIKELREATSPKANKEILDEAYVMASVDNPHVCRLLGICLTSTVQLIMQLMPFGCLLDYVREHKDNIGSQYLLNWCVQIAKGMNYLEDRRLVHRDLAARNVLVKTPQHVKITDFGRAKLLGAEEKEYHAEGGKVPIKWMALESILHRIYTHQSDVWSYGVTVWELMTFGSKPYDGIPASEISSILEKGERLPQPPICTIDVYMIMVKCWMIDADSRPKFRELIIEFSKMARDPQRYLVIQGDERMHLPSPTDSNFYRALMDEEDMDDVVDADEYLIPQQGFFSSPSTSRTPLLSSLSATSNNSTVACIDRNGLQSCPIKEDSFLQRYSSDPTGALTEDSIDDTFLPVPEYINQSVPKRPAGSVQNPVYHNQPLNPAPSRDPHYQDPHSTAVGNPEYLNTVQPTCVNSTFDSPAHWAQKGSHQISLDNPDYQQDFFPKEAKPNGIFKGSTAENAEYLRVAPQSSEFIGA

NCI-H1975 [7] = assay: Induction of morphological changes in human NCI-H1975 cells incubated for 48 hrs by AO/EB staining based fluorescence microscopic analysis; type: functional, cell-based; settings: dose 1-10 µM, DDE = dose-dependent effect
[8] = Selectivity index, ratio of IC50 for cytotoxicity against human L02 cells to IC50 for cytotoxicity against human NCI-H1975 cells harboring EGFR T790M/L858R mutant; type: toxicity, cell-based; settings: read-out: Ratio IC50
NCI-H1975 [9] = assay: Induction of apoptosis in human NCI-H1975 cells assessed as increase in died cells with few cells containing intact DNA at 10 uM incubated for 48 hrs by DAPI staining based fluorescence microscopic analysis; type: functional, cell-based
NCI-H1975 [10] = assay: Inhibition of cell migration in human NCI-H1975 cells at 0.05 to 0.5 uM by scratch wound healing assay; type: functional, cell-based; settings: dose 0.05-0.5 µM, time 24-48 hrs, TDE = time-dependent effect
[11] = Selectivity index, ratio of IC50 for cytotoxicity against human HBE cells to IC50 for cytotoxicity against human NCI-H1975 cells harboring EGFR T790M/L858R mutant; type: toxicity, cell-based; settings: read-out: Ratio IC50
NCI-H1975 [12] = assay: Inhibition of cell migration in human NCI-H1975 cells incubated for 24 to 48 hrs by scratch wound healing assay; type: functional, cell-based; settings: dose 0.05-0.5 µM, time 24-48 hrs, DDE = dose-dependent effect
NCI-H1975 [13] = assay: Induction of apoptosis in human NCI-H1975 cells assessed as chromatin shrinkage and accumulation in the nucleus at 1 to 10 uM incubated for 48 hrs by DAPI staining based fluorescence microscopic analysis; type: functional, cell-based; settings: dose 1-10 µM
NCI-H1975 [14] = assay: Induction of apoptosis in human NCI-H1975 cells assessed as increase in number of nonviable apoptotic cells at 5 to 10 uM incubated for 48 hrs by AO/EB staining based fluorescence microscopic analysis; type: functional, cell-based; settings: dose 5-10 µM
NCI-H1975 [15] = assay: Induction of apoptosis in human NCI-H1975 cells assessed as nuclear fragmentation by measuring breakdown of nucleus into small membrane blebs with compacted DNA at 1 to 10 uM incubated for 48 hrs by DAPI staining based fluorescence microscopic analysis; type: functional, cell-based; settings: dose 1-10 µM

| Structure (SMILES) | IC50 (NCI-H1975 [1]) [µM] | IC50 at 72 h [2] [µM] | IC50 at 72 h [3] [µM] | Ratio IC50 (Homo sapiens) | IC50 (ASPC1) [µM] | IC50 (NCI-H358) [µM] | IC50 at 72 h [4] [µM] | IC50 (SW-620) [µM] | IC50 [5] [µM] | IC50 [6] [µM] | Activity (NCI-H1975 [7]) | selectivity ratio [8] | Activity (NCI-H1975 [9]) | inhibition (NCI-H1975 [10]) | selectivity ratio [11] | inhibition (NCI-H1975 [12]) | Activity (NCI-H1975 [13]) | Activity (NCI-H1975 [14]) | Activity (NCI-H1975 [15]) |
| --- | --- | --- | --- | --- | --- | --- | --- | --- | --- | --- | --- | --- | --- | --- | --- | --- | --- | --- | --- |
| C=CC(=O)N1CCC(Oc2nc(Nc3ccc(N4CCOCC4)cc3)nc3ccsc23)CC1 | 5.8 | 16.7 | 3.89 | 30.2 | 2.77 | 16.5 | 16.2 | 4.82 | 0.197 | 0.00653 | – | – | – | – | – | – | – | – | – |
| C=CC(=O)N1CCC(Oc2nc(Nc3ccc(N4CCN(C(C)=O)CC4)cc3OC)nc3ccsc23)CC1 | 3.74 | 18.9 | 3.92 | 3 | 0.48 | 14.6 | 10.6 | 8.61 | 0.0607 | 0.0202 | – | – | – | – | – | – | – | – | – |
| C=CC(=O)N1CCC(Oc2nc(Nc3ccc(N4CCN(C(C)=O)CC4)cc3OC)nc3[nH]ccc23)CC1 | 3.78 | 12.9 | 3.51 | 4.23 | 4.92 | 3.56 | 16.1 | 5.8 | 0.133 | 0.0313 | – | – | – | – | – | – | – | – | – |
| C=CC(=O)N1CCC(Oc2nc(Nc3ccc(CN4CCC(CO)CC4)cc3)ncc2Cl)CC1 | 1.07 | 5.86 | 1.84 | 14.6 | 2.18 | 16 | 2.12 | 1.99 | 0.18 | 0.0123 | – | – | – | – | – | – | – | – | – |
| C=CC(=O)N1CCC(Oc2nc(Nc3ccc(N4CCN(C)CC4)c(F)c3)nc3ccsc23)CC1 | 1.89 | 4.05 | 1.38 | – | > 20 | 6.26 | 1.4 | 3.57 | – | – | – | – | – | – | – | – | – | – | – |
| C=CC(=O)N1CCC(Oc2nc(Nc3ccc(N4CCN(C)CC4)c(F)c3)ncc2Cl)CC1 | 2.09 | 8.91 | 3.26 | – | 3.88 | 1.51 | 5.38 | 1.64 | – | – | – | – | – | – | – | – | – | – | – |
| C=CC(=O)N1CCC(Oc2nc(Nc3ccc(N4CCN(C)CC4)cc3)nc3[nH]ccc23)CC1 | 1.72 | 7.94 | 1.65 | 6.35 | 1.21 | 4.22 | 6.25 | 2.47 | 0.0361 | 0.00568 | – | – | – | – | – | – | – | – | – |
| C=CC(=O)N1CCC(Oc2nc(Nc3cnn(C)c3)nc3ccsc23)CC1 | 2.31 | > 20 | 4.77 | 1.45 | 0.71 | 17.6 | 8.92 | 6.2 | 0.196 | 0.135 | – | – | – | – | – | – | – | – | – |
| C=CC(=O)N1CCC(Oc2nc(Nc3ccc(N4CCN(C)CC4)c(F)c3)nc3[nH]ccc23)CC1 | 0.89 | 3.02 | 1.29 | 8.87 | 0.4 | 3.62 | 1.89 | 1.6 | 0.119 | 0.0134 | – | – | – | – | – | – | – | – | – |
| C=CC(=O)Nc1cc(Nc2nccc(-c3cn(C)c4ccccc34)n2)c(OC)cc1N(C)CCN(C)C [OSIMERTINIB] | – | – | 1.32 | – | – | – | – | – | – | – | – | – | – | – | – | – | – | – | – |
| C=CC(=O)N1CCC(Oc2nc(Nc3ccc(N4CCOCC4)cc3OC)nc3ccsc23)CC1 | 5.87 | > 20 | 15.2 | 25.5 | 0.51 | > 20 | 18.2 | 8.67 | 0.246 | 0.00966 | – | – | – | – | – | – | – | – | – |
| C=CC(=O)N1CCC(Oc2nc(Nc3ccc(N4CCN(C)CC4)cc3OC)nc3[nH]ccc23)CC1 | 4.36 | > 20 | 2.71 | 2.99 | 7.04 | 9.86 | 18 | 9.88 | 0.0368 | 0.0123 | – | – | – | – | – | – | – | – | – |
| C=CC(=O)N1CCC(Oc2nc(Nc3ccc(N4CCN(C)CC4)cc3OC)nc3ccsc23)CC1 | 1.67 | 18.6 | 2.07 | 17.4 | 0.65 | 7.4 | 1.97 | 7.33 | 0.247 | 0.0142 | – | – | – | – | – | – | – | – | – |
| C=CC(=O)N1CCC(Oc2nc(Nc3ccc(N(C)CCN(C)C)cc3OC)nc3[nH]ccc23)CC1 | 4.14 | > 20 | 16.7 | 7.7 | 5.13 | 5.62 | 19 | 7.84 | 0.0593 | 0.0077 | – | – | – | – | – | – | – | – | – |
| C=CC(=O)N1CCC(Oc2nc(Nc3ccc(N4CCN(C)CC4)cc3)ncc2Cl)CC1 | 1.7 | 15 | 1.45 | – | 5.84 | 3.96 | 8.77 | 4.63 | – | – | – | – | – | – | – | – | – | – | – |
| CCC(=O)N1CCC(Oc2nc(Nc3ccc(N4CCN(C)CC4)cc3)nc3ccsc23)CC1 | 26.1 | – | – | – | – | – | – | – | 0.268 | 0.356 | – | – | – | – | – | – | – | – | – |
| C=CC(=O)N1CCC(Oc2nc(Nc3ccc(N4CCN(C)CC4)cc3)nc3ccsc23)CC1 | 0.62 | 9.05 | 4.18 | 73.3 | 5.31 | 18.9 | 8.45 | 7.45 | 0.359 | 0.0049 | Dde | 13 | Active | Tde | 13 | Dde | Active | Active | Active |
| C=CC(=O)N1CCC(Oc2nc(Nc3cnn(C)c3)nc3[nH]ccc23)CC1 | 0.93 | > 20 | 3.99 | 1.9 | 1.15 | 3.07 | 10.2 | 2.36 | 0.387 | 0.204 | – | – | – | – | – | – | – | – | – |
| C=CC(=O)N1CCC(Oc2nc(Nc3ccn(C)n3)nc3ccsc23)CC1 | 16.7 | > 20 | > 20 | 1.78 | < 0.2 | 20 | 16.7 | > 20 | 0.224 | 0.126 | – | – | – | – | – | – | – | – | – |
| C=CC(=O)N1CCC(Oc2nc(Nc3ccc(N4CCN(CCO)CC4)cc3)ncc2Cl)CC1 | 1.53 | 16.1 | 2.01 | 2.94 | 2.74 | 4.66 | 4.47 | 0.3 | 0.124 | 0.0421 | – | – | – | – | – | – | – | – | – |
